Measured values from patent publication US20130012389A1, “Substituted Pyridazines Having Herbicidal Action” (BASF SE, priority 2010, published 2013).

What was measured:
AMARE = assay: greenhouse experiment, post-emergence treatment, herbicidal activity against AMARE; format: in vivo, Amaranthus retroflexus; details: application rate 0.5 kg/ha, post-emergence method; scale from 0 to 100
Excerpt: (§1) The seeds of the test plants were sown separately for each species. For the post-emergence treatment, the test plants were first grown to a height of 3 to 15 cm, depending on the plant habit, and only then treated with the active ingredients which had been suspended or emulsified in water. For this purpose, the test plants were either sown directly and grown in the same containers, or they were first grown separately as seedlings and transplanted into the test containers a few days prior to treatment. Depending on the species, the plants were kept at 10-25° C. or 20-35° C. The test period extended over 2 to 4 weeks. During this time, the plants were tended, and their response to the individual treatments was evaluated. Evaluation was carried out using a scale from 0 to 100. 100 means no emergence of the plants, or complete destruction of at least the aerial moieties, and 0 means no damage, or normal course of growth. A good herbicidal activity is given at values of at least 70 and a very good herbicidal activity is given at values of at least 85. The plants used in the greenhouse experiments belonged to the following species: [table]

CHEAL = assay: greenhouse experiment, post-emergence treatment, herbicidal activity against CHEAL; format: in vivo, Chenopodium album; details: application rate 0.5 kg/ha, post-emergence method; scale from 0 to 100
Excerpt: as §1

## O=c1oc2nccnc2c(O)c1-c1cc(Cl)cc(N2CCOCC2)c1C(F)(F)F [1-4, 7-[5-chloro-3-morpholino-2-(trifluoromethyl)phenyl]-8-hydroxy-pyrano[2,3-b]pyrazin-6-one]
AMARE
  herbicidal activity against AMARE: very good herbicidal activity (a very good herbicidal activity is given at values of at least 85)
CHEAL
  herbicidal activity against CHEAL: very good herbicidal activity (a very good herbicidal activity is given at values of at least 85)
